{"source": "paper PMC9551036", "about": "“A selective and orally bioavailable VHL-recruiting PROTAC achieves SMARCA2 degradation in vivo” (Nature Communications, 2022)", "molecular_target": "SMARCA2 (Homo sapiens, UniProt P51531)", "sequence (P51531 whole entry)": "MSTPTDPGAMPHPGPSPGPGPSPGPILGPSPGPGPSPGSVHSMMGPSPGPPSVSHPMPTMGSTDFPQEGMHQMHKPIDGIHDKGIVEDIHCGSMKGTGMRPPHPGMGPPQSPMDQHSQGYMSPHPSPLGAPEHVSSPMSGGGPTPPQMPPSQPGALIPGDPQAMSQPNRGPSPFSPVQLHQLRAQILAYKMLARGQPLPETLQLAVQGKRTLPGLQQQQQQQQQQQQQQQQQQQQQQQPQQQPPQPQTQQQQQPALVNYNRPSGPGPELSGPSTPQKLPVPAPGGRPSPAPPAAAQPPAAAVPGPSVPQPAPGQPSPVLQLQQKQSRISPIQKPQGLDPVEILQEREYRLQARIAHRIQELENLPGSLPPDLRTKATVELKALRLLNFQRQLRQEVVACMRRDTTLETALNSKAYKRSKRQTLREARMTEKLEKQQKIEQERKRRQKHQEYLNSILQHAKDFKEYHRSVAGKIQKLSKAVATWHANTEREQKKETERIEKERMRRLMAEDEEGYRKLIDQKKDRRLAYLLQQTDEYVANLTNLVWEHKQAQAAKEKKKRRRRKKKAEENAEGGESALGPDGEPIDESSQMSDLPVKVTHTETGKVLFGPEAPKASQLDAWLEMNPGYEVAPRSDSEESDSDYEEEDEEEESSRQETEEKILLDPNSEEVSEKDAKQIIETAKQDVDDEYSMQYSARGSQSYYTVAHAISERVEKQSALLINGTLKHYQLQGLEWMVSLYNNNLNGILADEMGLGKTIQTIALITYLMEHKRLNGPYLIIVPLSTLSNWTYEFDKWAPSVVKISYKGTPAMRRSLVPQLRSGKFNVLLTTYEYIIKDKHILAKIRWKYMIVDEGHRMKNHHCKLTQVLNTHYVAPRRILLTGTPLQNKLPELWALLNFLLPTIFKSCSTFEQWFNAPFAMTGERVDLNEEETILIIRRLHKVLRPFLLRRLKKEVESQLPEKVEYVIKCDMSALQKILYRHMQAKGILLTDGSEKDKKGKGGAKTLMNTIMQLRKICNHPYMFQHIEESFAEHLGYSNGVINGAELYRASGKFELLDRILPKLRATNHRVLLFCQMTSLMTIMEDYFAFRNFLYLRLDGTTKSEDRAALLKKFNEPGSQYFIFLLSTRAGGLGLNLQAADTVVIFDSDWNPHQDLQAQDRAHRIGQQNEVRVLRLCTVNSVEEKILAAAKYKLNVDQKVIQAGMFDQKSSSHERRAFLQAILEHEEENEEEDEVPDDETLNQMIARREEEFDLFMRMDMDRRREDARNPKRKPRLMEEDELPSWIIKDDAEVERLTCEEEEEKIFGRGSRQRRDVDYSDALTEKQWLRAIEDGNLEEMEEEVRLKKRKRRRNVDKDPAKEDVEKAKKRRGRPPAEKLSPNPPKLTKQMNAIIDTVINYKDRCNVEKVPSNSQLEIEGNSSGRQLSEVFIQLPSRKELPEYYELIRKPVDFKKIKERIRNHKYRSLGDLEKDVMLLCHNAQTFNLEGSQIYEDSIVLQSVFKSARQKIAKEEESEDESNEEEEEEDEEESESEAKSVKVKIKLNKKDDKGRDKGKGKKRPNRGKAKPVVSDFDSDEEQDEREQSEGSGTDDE", "assay": "Ex vivo human whole blood assay, SMARCA2", "format": "cell-based", "design": "endogenous in cells", "conditions": "for HillSlope (best-fit value) / DC50: four-parameter fit; for Bottom (best-fit value) / Span (best-fit value) / Top (best-fit value): four-parameter fit of % protein remaining; for DC50: read-out: EC50 (best-fit value); for LogEC50 (best-fit value): log10 of concentration (mol/l)", "procedure": "The assay was performed on human whole blood from three healthy donors, purchased from the Austrian Red Cross who always obtain samples under informed consent. […] Samples were pivoted at room temperature for 18 h in the dark. Subsequently, peripheral blood mononucleated cells (PBMCs) were isolated from individual aliquots using SepMate Tubes (StemCell) and Lymphoprep (StemCell) medium according to the manufacturer’s instructions and protein lysates were prepared using MSD Lysis buffer (Mesocale Discovery) supplemented with 1:100 Halt Phosphatase-Protease Inhibitor Cocktail (Thermo Fisher), 0.5 µl/ml benzonase (Novagen) and 10 mM DTT. SMARCA2 and SMARCA4 protein levels were determined using capillary electrophoresis (Bio-Techne) according to manufacturer’s instructions. Incubation with primary antibodies for SMARCA2 (Cell Signalling #11966 clone D9E8B RRID:AB_2797783 1:25), SMARCA4 (Abcam #ab110641 clone EPNCIR111A RRID:AB_10861578 1:25) and GAPDH (Abcam, #ab9485 RRID:AB_307275 1:1000) were performed for 30 min.", "note": "“And” between values parts separate entries of the source, which are not always exact repeats. Identical values can stand only once. Like-named read-outs stand apart in the source and are kept apart here."}
{"smiles": "Cc1ncsc1-c1ccc(C(CCC(C)CCN2CCC(c3ccc4c(c3)n(C3CCCC3)c3nc(=O)c5c(Br)cccc5n43)CC2)NC(=O)C2CC(O)CN2C(=O)C(NC(=O)C2(F)CC2)C(C)(C)C)cc1", "note": "(stereo not shown) [ACBI2]", "values": [{"measurement": "% protein remaining, SMARCA2", "setting": "Donor 1, log10[concentration (mol/l)] -6", "value": "7.774% and 7.336% and 6.483%"}, {"measurement": "% protein remaining, SMARCA2", "setting": "Donor 1, log10[concentration (mol/l)] -6.47712", "value": "27.8553% and 21.8081% and 18.9544%"}, {"measurement": "% protein remaining, SMARCA2", "setting": "Donor 1, log10[concentration (mol/l)] -6.95424", "value": "43.7755% and 37.877% and 37.8583%"}, {"measurement": "% protein remaining, SMARCA2", "setting": "Donor 1, log10[concentration (mol/l)] -7.43136", "value": "67.8936% and 57.3294% and 53.6432%"}, {"measurement": "% protein remaining, SMARCA2", "setting": "Donor 1, log10[concentration (mol/l)] -7.90848", "value": "91.2009% and 93.1862% and 66.2599%"}, {"measurement": "% protein remaining, SMARCA2", "setting": "Donor 1, log10[concentration (mol/l)] -8.38561", "value": "88.6362% and 87.296% and 66.0015%"}, {"measurement": "% protein remaining, SMARCA2", "setting": "Donor 1, log10[concentration (mol/l)] -8.86273", "value": "73.7554% and 107.064% and 91.2397%"}, {"measurement": "HillSlope (best-fit value)", "setting": "Donor 1 SMARCA2", "value": -0.8748}, {"measurement": "Bottom (best-fit value)", "setting": "Donor 1 SMARCA2", "value": -2.012, "unit": "%"}, {"measurement": "Span (best-fit value)", "setting": "Donor 1 SMARCA2", "value": 93.51, "unit": "%"}, {"measurement": "Top (best-fit value)", "setting": "Donor 1 SMARCA2", "value": 91.5, "unit": "%"}, {"measurement": "DC50", "setting": "Donor 1 SMARCA2", "value": 91.1, "unit": "nM"}, {"measurement": "LogEC50 (best-fit value)", "setting": "Donor 1 SMARCA2", "value": -7.04}, {"measurement": "% protein remaining, SMARCA2", "setting": "Donor 2, log10[concentration (mol/l)] -6", "value": "7.351% and 9.811% and 14.3342%"}, {"measurement": "% protein remaining, SMARCA2", "setting": "Donor 2, log10[concentration (mol/l)] -6.47712", "value": "29.8249% and 32.3978% and 22.5296%"}, {"measurement": "% protein remaining, SMARCA2", "setting": "Donor 2, log10[concentration (mol/l)] -6.95424", "value": "46.7755% and 52.5543% and 72.1634%"}, {"measurement": "% protein remaining, SMARCA2", "setting": "Donor 2, log10[concentration (mol/l)] -7.43136", "value": "100.769% and 75.1426% and 71.9733%"}, {"measurement": "% protein remaining, SMARCA2", "setting": "Donor 2, log10[concentration (mol/l)] -7.90848", "value": "102.968% and 75.392% and 80.5753%"}, {"measurement": "% protein remaining, SMARCA2", "setting": "Donor 2, log10[concentration (mol/l)] -8.38561", "value": "67.4421% and 97.2734% and 86.3024%"}, {"measurement": "% protein remaining, SMARCA2", "setting": "Donor 2, log10[concentration (mol/l)] -8.86273", "value": "85.0643% and 65.7852% and 85.6876%"}, {"measurement": "HillSlope (best-fit value)", "setting": "Donor 2 SMARCA2", "value": -1.742}, {"measurement": "Bottom (best-fit value)", "setting": "Donor 2 SMARCA2", "value": 8.097, "unit": "%"}, {"measurement": "Span (best-fit value)", "setting": "Donor 2 SMARCA2", "value": 75.81, "unit": "%"}, {"measurement": "Top (best-fit value)", "setting": "Donor 2 SMARCA2", "value": 83.91, "unit": "%"}, {"measurement": "DC50", "setting": "Donor 2 SMARCA2", "value": 172, "unit": "nM"}, {"measurement": "LogEC50 (best-fit value)", "setting": "Donor 2 SMARCA2", "value": -6.765}, {"measurement": "% protein remaining, SMARCA2", "setting": "Donor 3, log10[concentration (mol/l)] -6", "value": "11.0787% and 14.9408% and 20.3816%"}, {"measurement": "% protein remaining, SMARCA2", "setting": "Donor 3, log10[concentration (mol/l)] -6.47712", "value": "32.5224% and 22.883% and 24.5065%"}, {"measurement": "% protein remaining, SMARCA2", "setting": "Donor 3, log10[concentration (mol/l)] -6.95424", "value": "43.403% and 45.8346% and 34.6157%"}, {"measurement": "% protein remaining, SMARCA2", "setting": "Donor 3, log10[concentration (mol/l)] -7.43136", "value": "68.0983% and 70.9906% and 84.1093%"}, {"measurement": "% protein remaining, SMARCA2", "setting": "Donor 3, log10[concentration (mol/l)] -7.90848", "value": "97.8509% and 97.5546% and 65.5857%"}, {"measurement": "% protein remaining, SMARCA2", "setting": "Donor 3, log10[concentration (mol/l)] -8.38561", "value": "73.4464% and 119.725% and 73.7076%"}, {"measurement": "% protein remaining, SMARCA2", "setting": "Donor 3, log10[concentration (mol/l)] -8.86273", "value": "88.433% and 116.976% and 110.86%"}, {"measurement": "HillSlope (best-fit value)", "setting": "Donor 3 SMARCA2", "value": -0.9991}, {"measurement": "Bottom (best-fit value)", "setting": "Donor 3 SMARCA2", "value": 9.358, "unit": "%"}, {"measurement": "Span (best-fit value)", "setting": "Donor 3 SMARCA2", "value": 92.07, "unit": "%"}, {"measurement": "Top (best-fit value)", "setting": "Donor 3 SMARCA2", "value": 101.4, "unit": "%"}, {"measurement": "DC50", "setting": "Donor 3 SMARCA2", "value": 70.3, "unit": "nM"}, {"measurement": "LogEC50 (best-fit value)", "setting": "Donor 3 SMARCA2", "value": -7.153}, {"measurement": "SMARCA2 degradation in human whole blood", "setting": "three healthy donors, 18 h", "value": "significant degradation of SMARCA2"}]}
